Drawing on PubChem BioAssay (NCI), this text covers TGI and GI50 for 15 molecules.

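All cell lines were grown in 96-well plates and treated with compound for 48 hours. GI50: concentration for 50% inhibition of growth. The concentration for full growth arrest is given as TGI.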

Among the test systems are 786-0 renal; U251 CNS; A549 NSCLC; SR leukemia; K-562 leukemia; SN12C renal; SK-MEL-28 melanoma; UO-31 renal; CCRF-CEM leukemia.
Common to all, as to assay: NCI anticancer screen, dose series, 48 h

For the molecule `CNC(=S)/N=C(\N)N(C)C`, the TGI in the test on 786-0 renal, in the test with U251 CNS, in the test on A549 NSCLC, with SR leukemia, in the test on K-562 leukemia and in the test on SN12C renal was over 100 µM throughout. Moreover, the TGI with SK-MEL-28 melanoma and in the test on UO-31 renal was over 100 µM in each case.
As for `O=C1c2ccccc2C(=O)C1(O)c1c[nH]c2ccccc12`, the TGI in the test on 786-0 renal, in the test on U251 CNS, with A549 NSCLC, with SR leukemia, in the test with CCRF-CEM leukemia and with K-562 leukemia was over 100 µM throughout. Besides, the TGI with SK-MEL-28 melanoma and in the test with UO-31 renal was over 100 µM throughout.
As to `COc1cc2[nH]c3c(c2cc1OC)CCN[C@]31CC[C@]2(CC3c4c(cc(OC)c(O)c42)CCN3C)C[C@H]1OC` (stereo not given in full), the TGI was determined as 32.6 µM with 786-0 renal; 36 µM in the test with U251 CNS; 68.8 µM with A549 NSCLC; 40 µM in the test with SR leukemia; 26.7 µM in the test on CCRF-CEM leukemia; 23.7 µM with K-562 leukemia. The TGI in the test with SN12C renal came to 62.8 µM; in the test on SK-MEL-28 melanoma, 36.6 µM.
Turning to `Cc1[nH]c(=O)nc2[nH][nH]c(=O)c12`, the TGI with 786-0 renal, in the test on U251 CNS, in the test with A549 NSCLC, in the test with SR leukemia, in the test on CCRF-CEM leukemia and in the test on K-562 leukemia was over 100 µM in each case. Besides, the TGI with SN12C renal and in the test with SK-MEL-28 melanoma was over 100 µM each time.
Consider `O=C(O)CNS(=O)(=O)c1ccc(NC(=O)c2ccc([N+](=O)[O-])cc2)cc1`, for which the TGI in the test with 786-0 renal, in the test with U251 CNS, with A549 NSCLC, in the test on CCRF-CEM leukemia, with K-562 leukemia and in the test on SN12C renal was over 100 µM in each case. Besides, the TGI in the test on SK-MEL-28 melanoma and in the test with UO-31 renal was over 100 µM each time.
In the case of `O=C(c1cccc2ccccc12)N1CCC(C2CCN(C(=O)c3cccc4ccccc34)CC2)CC1`, the TGI with 786-0 renal, in the test on U251 CNS, with A549 NSCLC, in the test on SR leukemia, in the test with CCRF-CEM leukemia and in the test on K-562 leukemia was over 100 µM throughout. Besides, the TGI in the test with SN12C renal, in the test on SK-MEL-28 melanoma and with UO-31 renal was over 100 µM throughout.
Turning to `CCCN(CCC)C(=O)c1c([N+](=O)[O-])cc(C(F)(F)F)cc1[N+](=O)[O-]`, the TGI with 786-0 renal, with U251 CNS, in the test with A549 NSCLC, in the test on SR leukemia, in the test with CCRF-CEM leukemia and in the test on K-562 leukemia was over 100 µM each time. The TGI with SN12C renal, in the test with SK-MEL-28 melanoma and in the test on UO-31 renal was over 100 µM throughout.
With `Cc1nnc(NS(=O)(=O)c2ccc(N=Nc3cc(N=Nc4ccc(S(=O)(=O)Nc5nnc(C)s5)cc4)c4c(NC(=O)C(Cl)Cl)cccc4c3OC(=O)C(Cl)Cl)cc2)s1` (tested in a mixture with another compound), the TGI was over 100 µM in the test on 786-0 renal; over 100 µM with U251 CNS; 60.2 µM in the test on A549 NSCLC; over 100 µM in the test on CCRF-CEM leukemia; 77.8 µM with K-562 leukemia; over 100 µM in the test on SN12C renal. The figures for the TGI with SK-MEL-28 melanoma and in the test with UO-31 renal were 48.5 µM and over 100 µM, respectively.
Consider `O=C(/C=C/c1ccc(Cl)c(Cl)c1)c1ccc2ccccc2c1`, for which the TGI in the test on 786-0 renal, with U251 CNS, in the test with A549 NSCLC, in the test with SR leukemia, in the test on CCRF-CEM leukemia and in the test on K-562 leukemia was over 100 µM each time. For the same molecule, the TGI in the test with SN12C renal was 71.6 µM; in the test with SK-MEL-28 melanoma, over 100 µM; with UO-31 renal, over 100 µM.
Consider `[N-]=[N+]=C1C(=O)NN=C1c1ccccc1`, for which the TGI in the test on 786-0 renal, with U251 CNS, in the test with A549 NSCLC, in the test with SR leukemia, in the test with CCRF-CEM leukemia and in the test on K-562 leukemia was over 100 µM each time. For the same molecule, the TGI in the test on SN12C renal and with SK-MEL-28 melanoma was over 100 µM each time.
For the molecule `CN(Cc1ccccc1)C(=O)c1ccccc1C(=O)O`, the TGI with 786-0 renal, in the test on U251 CNS, with A549 NSCLC, with SR leukemia, in the test on CCRF-CEM leukemia and with K-562 leukemia was over 100 µM in each case. For the same molecule, the TGI in the test with SN12C renal and in the test with UO-31 renal was over 100 µM throughout.
On to `CCOC(=O)C(=O)Nc1ccccc1CC`, for which the TGI in the test with 786-0 renal, in the test on U251 CNS, in the test with A549 NSCLC, in the test with CCRF-CEM leukemia, in the test on K-562 leukemia and in the test on SN12C renal was over 100 µM in each case. The TGI in the test on SK-MEL-28 melanoma and in the test on UO-31 renal was over 100 µM in each case.
Take `CCCC1=C(CC)C(C(=O)Nc2c(C)cccc2C)=NC(S)N1` (stereo not given): the TGI in the test with 786-0 renal, in the test on U251 CNS, in the test on A549 NSCLC, in the test on SR leukemia, in the test with CCRF-CEM leukemia and with K-562 leukemia was over 100 µM throughout. Also, the TGI with SN12C renal, in the test with SK-MEL-28 melanoma and in the test on UO-31 renal was over 100 µM each time.
`C=C1C(=O)O[C@H]2[C@H]1CC/C(COC(=O)NCCCCNC(=O)OC/C1=C/CC[C@@]3(C)O[C@H]3[C@H]3OC(=O)C(=C)[C@@H]3CC1)=C\CC[C@@]1(C)O[C@@H]21`: the GI50 in the test with 786-0 renal was 1.99 µM; in the test on U251 CNS, 2.94 µM; in the test on A549 NSCLC, 8.01 µM; with SR leukemia, 0.549 µM; in the test with CCRF-CEM leukemia, 0.272 µM; with K-562 leukemia it was 0.665 µM. For the same molecule, the results for the GI50 with SN12C renal, in the test with SK-MEL-28 melanoma and in the test with UO-31 renal were 2.75 µM, 0.529 µM and 7.61 µM, respectively. Also, the TGI in the test with 786-0 renal worked out at 4.26 µM; in the test with U251 CNS, 9.83 µM; with A549 NSCLC, 23.1 µM; with SR leukemia it was 3.51 µM; in the test on CCRF-CEM leukemia, 0.845 µM; in the test on K-562 leukemia, 10.4 µM. For the same molecule, the TGI amounted to 10.1 µM with SN12C renal, 2.3 µM in the test on SK-MEL-28 melanoma and 20.9 µM with UO-31 renal.
As to `O=C(CCc1nc(=S)[nH][nH]1)Nc1ccccc1Cl`, the TGI with 786-0 renal, in the test with U251 CNS, in the test on A549 NSCLC, in the test with SR leukemia, in the test with CCRF-CEM leukemia and with K-562 leukemia was over 100 µM each time. In addition, the TGI in the test with SN12C renal, with SK-MEL-28 melanoma and with UO-31 renal was over 100 µM in each case.
